One data set relates to NEDD4 SP3 mRNA. Kind of data set: Knockdown efficiency: NEDD4 SP3 mRNA expression by qPCR in siRNA-transfected H4 cells. The conditions noted are these: under TNF-α stimulation, relative to GAPDH, remaining expression vs si-control. The class given is cell-based, human. On the procedure: (§1) siRNA (GCAAGACAAGAGAUGAUUUtt (SEQ ID No. 23), Ambion Silencer Select siRNA, Thermo Fisher Scientific) against NEDD4 SP3, and control siRNA (Ambion Silencer Select siRNA, Thermo Fisher Scientific) were transfected into a human glioma cell line (H4 cells) using Lipofectamine RNAiMAX (Thermo Fisher Scientific), and NEDD4 SP3 knockdown cells were constructed. After stimulating the control cells and the knockdown cells with IL-6 +TNFa, the IL-6 mRNA expression was measured by qPCR (primer sequence: […] (SEQ ID No. 24) and […] (SEQ ID No.25)). Moreover, the knockdown efficiency was confirmed using the NEDD4 SP3 expression as an index. The expression level indicates the relative amount with respect to the housekeeping gene GAPDH (primer sequence: […] (SEQ ID No.26) and CGCTCCTGGAAGATGGTG (SEQ ID No.27)).
(In general: Real-time PCR tracks product formation cycle by cycle.)

Data set [1] concerns IL-6 mRNA expression in H4 cells. Description: IL-6 mRNA expression by qPCR in H4 cells stimulated with IL-6 + TNFa (inflammation amplifier). Format: cell-based, human. The conditions noted are these: under IL-6 and TNF-α stimulation, relative to GAPDH, remaining expression vs si-control. The procedure:
as §1

Consider “GCAAGACAAGAGAUGAUUUtt (SEQ ID No. 23) (GCAAGACAAGAGAUGAUUUTT; chemistry not given here) [NEDD4 si-SP3, siRNA against NEDD4 SP3, Ambion Silencer Select siRNA, Thermo Fisher Scientific]”, for which, in the data set on NEDD4 SP3 mRNA, the “NEDD4 SP3 mRNA expression level compared to H4 cells introduced with si-control” value is 4.2%. Further, the “IL-6 mRNA expression level compared to H4 cells introduced with si-control” value in data set [1] is 41.0%.

Values taken from patent publication US20210032633A1, “DRUG FOR CHRONIC INFLAMMATORY DISEASE AND METHOD FOR EVALUATING SUSCEPTIBILITY TO CHRONIC INFLAMMATORY DISEASE” (National University Corporation Hokkaido University, priority 2018, published 2021).
